Data from patent US11357871B2, “Challenge test for diagnosing subtypes of ASD” (Stalicla S.A., priority 2017, dated 2022).
Like-named read-outs stand apart in the source and are kept apart here.

How the values were obtained:
[1] = system: lymphoblastoid cell lines of ASD phenotype 1 patients; assay: Biolog Phenotype Mammalian MicroArray (PM-M) NADH/energy production, phenotype 1 cells; type: cell-based, human; settings: cells exposed to the substance; AUC (Figure 1) and endpoint absorbance (Table 1)
Procedure: From all subjects, blood samples were collected and lymphoblastoid cell lines generated. Briefly, tubes containing anticoagulant citrate dextrose (ACD) were used to collect blood samples via venipuncture, in order to ensure that the blood cells remained metabolically active. The tubes were kept at room temperature and processed within 24 hours.
Cell lines were obtained by immortalization of lymphocytes from blood samples using Epstein-Barr virus.
Energy production of cells was measured using commercially available Phenotype Mammalian MicroArrays (PM-Ms, Biolog, Hayward, Calif., USA).
The compound in each well was designed to be used by the cells, either as the sole energy source or as the metabolic effector influencing the utilization of an energy source (α-D-glucose) added in the cell suspension. […] Before plating, cell viability and number were assessed utilizing a BioRad cell counter and a trypan blue dye. The concentration of live cells required for plating was 4×10^5 cells/mL, corresponding to 20,000 cells per well in a volume of 50 μL. […] Cells were incubated for 48 h at 37° C. in 5% CO2, using the modified Biolog IF-M1 medium.
The Biolog IF-M1 medium was modified for plates PM-M1 to M4 by adding the following to 100 mL of Biolog IF-M1: 1.1 mL of 100× penicillin/streptomycin solution, 0.16 mL of 200 mM glutamine (final concentration 0.3 mM), and 5.3 mL of Fetal Bovine Serum (FBS, final concentration 5%). For plates PM-M5 to M8, 5.5 mM α-D-glucose will be added in place of FBS.
During the 48-hour incubation, the only energy source the cells had was the chemical in the well. After this first incubation, Biolog Redox Dye Mix MB was added (10 μL/well) and the plates were incubated under the same conditions for an additional 24 hours. As the cells metabolized the energy source, tetrazolium dye in the media was reduced, producing a purple color according to the amount of NADH generated.
For the last 24 hours of the experiment, the plates were incubated in the Omnilog system, which collects optical density readings every 15 minutes, generating 96 data-points for each well. The system also elaborated the kinetic curve for the metabolic reaction in each well and extrapolated parameters such as slope, highest point, endpoint, area under the curve (AUC), and lag.
At the end of the 24-hour incubation, the plates were analyzed utilizing a microplate reader with readings at 590 and 750 nm. The first value (A590) indicated the highest absorbance peak of the redox dye and the second value (A750) gave a measure of the background noise. The relative absorbance (A590-750) was calculated per well.

ASD phenotype 1 patients = assay: Nrf2-activator challenge test, ASD phenotype 1 patients (ADI-R, CGI-S, CGI-I); type: in vivo, human; settings: selected patient cohort
Procedure: (§1) The effects of sulforaphane containing Broccoli sprout extract was observed and quantified in 7 individuals suffering from ASD and previously classified as either phenotype 1 or phenotype 2 patients.
The extract was prepared from selected broccoli seeds known to have high yield of sulforaphane which were surface-disinfected and grown (sprouted) for 3 days in a commercial sprouting facility under controlled light and moisture conditions.

ASD phenotype 2 patients = settings: wording of CGI-I rating
Procedure: as §1
We describe a procedure consisting of an evaluation of patients with ASD prior and after administration of broccoli sprout extract. The extract was prepared from selected broccoli seeds known to have high yield of sulforaphane which were surface-disinfected and grown (sprouted) for 3 days in a commercial sprouting facility under controlled light and moisture conditions. A boiling water extract was prepared, filtered, cooled, and treated with the enzyme myrosinase (from daikon sprouts) to convert precursor glucosinolates to isothiocyanates. Behavioral evaluation of patients was performed prior, during and after administration of sulforaphane-containing broccoli sprout extract. Baseline evaluation of patients was performed using standard clinical endpoints (ADI-R subscales ADI-SI, ADI-C and ADI-RI).
Challenge regimen consisted of the administration of a Broccoli Sprout Extract dose corresponding to a total daily dosage of 4 μmol/kg of sulforaphane, administered in 3 doses over the course of the day. […]

Compound	NADH production of ASD phenotype 1 cells compared to TDs and non-phenotype 1 cells [1]	further results
PDGF-AB: platelet-derived growth factor AB	no significant differences	
C[S@@+]([O-])CCCCN=C=S [sulforaphane, 1-isothiocyanato-4R-(methylsulfinyl)butane]		reduction of disease severity as measured through the ADI-R, SRS and GGI-S/CGI-I (ASD phenotype 1 patients): not effective in reducing disease severity; Clinical significance (ASD phenotype 2 patients; Example 4 Patient 1 (phenotype 2)): Very much improved; Clinical significance (ASD phenotype 2 patients; Example 4 Patient 2 (phenotype 2)): Very much improved
FGF-1(aFGF): growth factor that selectively targets the PI3K-Akt-mTOR pathway	significantly reduced production of NADH	
IL-6: Th1 cytokine	significantly lower levels of NADH	
IL-1beta: Th1 cytokine	significantly lower levels of NADH	
IGF-I: insulin-like growth factor 1	no significant differences	
hGH(Somatotropin): growth factor that selectively targets the PI3K-Akt-mTOR pathway	significantly reduced production of NADH	
